According to patent US20130065897A1, “COMPOUNDS, PREPARATION AND USES THEREOF” (PETER MACCALLUM CANCER INSTITUTE, priority 2009, published 2013):

How the values were obtained:
[1] = tested on: KHYG-1 NK cells; assay: Toxicity to KHYG-1 NK cells (trypan blue viability); type: cell-based; conditions: viable cells as percentage of total (% viability), 18 to 24 hours
[2] = tested on: KHYG-1 NK cell-mediated lysis of K562 cells; assay: Inhibition of KHYG-1 NK cell-mediated lysis of K562 cells (51Cr release); type: cell-based; conditions: K562 target cells, Effector:Target 2:1, 4 hours 37° C.
Procedure, shortened: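 KHYG-1 NK effector cells in RPMI+0.1% BSA were preincubated with compounds up to 20 μM for 20 minutes at RT. ⁵¹Cr-labelled K562 targets were then added (E:T 2:1) for 4 hours at 37 °C, and ⁵¹Cr release gamma-counted as percent specific cytotoxicity, mean of triplicates ± SEM.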

[3] = molecular target: recombinant perforin (UniProt P10820); type: cell-based; conditions: read-out: Jurkat IC50; recombinant perforin pre-incubated 30 min with compound; 51Cr-labelled Jurkat cells, 0.1% BSA, 37° C. 4 hours
recombinant perforin, sequence (P10820 whole entry): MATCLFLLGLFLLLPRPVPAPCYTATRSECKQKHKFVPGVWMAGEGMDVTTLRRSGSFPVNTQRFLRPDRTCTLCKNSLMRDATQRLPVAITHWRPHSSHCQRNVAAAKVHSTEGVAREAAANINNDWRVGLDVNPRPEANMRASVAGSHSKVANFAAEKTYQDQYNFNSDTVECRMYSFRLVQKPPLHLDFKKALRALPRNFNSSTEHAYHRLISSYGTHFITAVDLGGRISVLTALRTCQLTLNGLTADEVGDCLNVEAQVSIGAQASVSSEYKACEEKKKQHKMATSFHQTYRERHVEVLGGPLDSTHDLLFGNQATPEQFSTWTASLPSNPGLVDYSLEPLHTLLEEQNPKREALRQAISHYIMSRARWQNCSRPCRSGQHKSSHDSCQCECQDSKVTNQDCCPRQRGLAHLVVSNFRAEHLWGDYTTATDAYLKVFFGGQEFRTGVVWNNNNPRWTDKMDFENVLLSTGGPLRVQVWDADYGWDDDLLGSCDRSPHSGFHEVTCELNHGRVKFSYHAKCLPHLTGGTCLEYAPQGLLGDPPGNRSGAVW
Procedure, shortened: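 Jurkat T lymphoma target cells labelled 1 h with 100 μCi ^51Cr, washed, resuspended at 1×10^5 cells/mL in RPMI with 0.1% BSA; lysis read as ^51Cr release into supernatant by gamma counting. Triplicate points; IC50 from the concentration range.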

| Compound | percent viable KHYG-1 cells (trypan blue) at 20 μM [1] | inhibition at 20 µM [2] | melting point | IC50 [3] |
| --- | --- | --- | --- | --- |
| O=C1NC(=S)N/C1=C/c1ccc(-c2ccc3c(c2)COC3=O)o1 [Cmpd 1, (E,Z)-5-((5-(1-Oxo-1,3-dihydroisobenzofuran-5-yl)furan-2-yl)methylene)-2-thioxoimidazolidin-4-one] | 66% | 95% | > 300 °C |  |
| O=C1NC(=S)N/C1=C/c1cc2cc(-c3ccc4c(c3)COC4=O)ccc2s1 [Cmpd 79, (E,Z)-5-((5-(1-Oxo-1,3-dihydroisobenzofuran-5-yl)benzo[b]thiophen-2-yl)methylene)-2-thioxoimidazolidin-4-one] | 72% | 59% | > 305 °C |  |
| O=C1NC(=S)N/C1=C\c1csnc1-c1ccc2c(c1)COC2=O [Cmpd 59, (E,Z)-5-((3-(1-Oxo-1,3-dihydroisobenzofuran-5-yl)isothiazol-4-yl)methylene)-2-thioxoimidazolidin-4-one] | 93% | 24% | > 300 °C |  |
| CN(C)CCCN1Cc2cc(-c3ccc(/C=C4/NC(=S)NC4=O)s3)ccc2C1=O [Cmpd 74, (E)-2-(3-(Dimethylamino)propyl)-5-(5-((5-oxo-2-thioxoimidazolidin-4-ylidene)methyl)thiophen-2-yl)isoindolin-1-one] | 82% | 53% | 212 °C (dec.) | > 20000 nM |
| O=C1NC(=S)N/C1=C\c1ccc(-c2ccc3c(c2)COC3=O)cc1 [Cmpd 6, (E,Z)-5-(4-(1-Oxo-1,3-dihydroisobenzofuran-5-yl)benzylidene)-2-thioxoimidazolidin-4-one] | 95% | 50% | > 300 °C |  |
| O=C1NC(=S)N/C1=C/c1cc2cc(-c3ccc4c(c3)COC4=O)ccc2[nH]1 [Cmpd 12, (E,Z)-5-((5-(1-Oxo-1,3-dihydroisobenzofuran-5-yl)-1H-indol-2-yl)methylene)-2-thioxoimidazolidin-4-one] | 94% | 74% | > 300 °C | 720 nM |
| O=C1NC(=O)/C(=C\c2ccc(-c3ccc4c(c3)COC4=O)s2)N1 [Cmpd 3, (E,Z)-5-((5-(1-Oxo-1,3-dihydroisobenzofuran-5-yl)thiophen-2-yl)methylene)imidazolidine-2,4-dione] | 82% | 70% | > 300 °C |  |
| O=C1NC(=S)N/C1=C/c1cnc(-c2ccc3c(c2)COC3=O)o1 [Cmpd 54, (E,Z)-5-((2-(1-Oxo-1,3-dihydroisobenzofuran-5-yl)oxazol-5-yl)methylene)-2-thioxoimidazolidin-4-one] | 100% | 55% | > 295 °C |  |
| O=C1NC(=S)N/C1=C/c1cc2ccc(-c3ccc4c(c3)COC4=O)cc2[nH]1 [Cmpd 11, (E,Z)-5-((6-(1-Oxo-1,3-dihydroisobenzofuran-5-yl)-1H-indol-2-yl)methylene)-2-thioxoimidazolidin-4-one] | 86% | 100% | > 300 °C | 2340 nM |
| O=C1NC(=S)N/C1=C\c1csc2ccc(-c3ccc4c(c3)COC4=O)cc12 [Cmpd 9] | 0% | 80% | > 300 °C |  |
| O=C1NC(=S)N/C1=C/c1ccc(-c2ccc(C(=O)NCCN3CCOCC3)cc2)s1 [Cmpd 45, (E,Z)-N-(2-Morpholinoethyl)-4-(5-((5-oxo-2-thioxoimidazolidin-4-ylidene)methyl)thiophen-2-yl)benzamide] | 88% | 78% | 248 to 252 °C | > 20000 nM |
| O=C1NC(=S)N/C1=C\c1ccc2ccc(-c3ccc4c(c3)COC4=O)cc2n1 [Cmpd 13] | 70% | 52% | > 310 °C | 1720 nM |
| O=C1C/C(=C/c2ccc(-c3ccc4c(c3)COC4=O)s2)C(=O)N1 [Cmpd 36, (E,Z)-3-((5-(1-Oxo-1,3-dihydroisobenzofuran-5-yl)thiophen-2-yl)methylene)pyrrolidine-2,5-dione] | 65% | 51% | > 295 °C |  |
| COc1ccc(-c2ccc(/C=C3/NC(=S)NC3=O)s2)cc1 [Cmpd 22, (E,Z)-5-((5-(4-Methoxyphenyl)thiophen-2-yl)methylene)-2-thioxoimidazolidin-4-one] | 100% | 78% | 288 to 293 °C | 8930 nM |
| O=C1NC(=S)N/C1=C\c1cccc(-c2ccc3c(c2)COC3=O)c1 [Cmpd 5, (E,Z)-5-(3-(1-Oxo-1,3-dihydroisobenzofuran-5-yl)benzylidene)-2-thioxoimidazolidin-4-one] | 97% | 64% | 285 to 288 °C |  |
| O=C1NC(=S)N/C1=C/c1cc2cc(-c3ccc4c(c3)COC4=O)ccc2o1 [Cmpd 10, (2)-5-((5-(1-Oxo-1,3-dihydroisobenzofuran-5-yl)benzofuran-2-yl)methylene)-2-thioxoimidazolidin-4-one] | 88% | 51% | > 300 °C | 620 nM |
| [H]/N=C1/NC(=O)/C(=C\c2ccc(-c3ccc4c(c3)COC4=O)s2)N1C [Cmpd 4, (E,Z)-2-Imino-1-methyl-5-((5-(1-oxo-1,3-dihydroisobenzofuran-5-yl)thiophen-2-yl)methylene)imidazolidin-4-one] | 100% | 50% | > 300 °C |  |
| O=C1NC(=S)N/C1=C\c1cnc(-c2ccc3c(c2)COC3=O)s1 [Cmpd 55, (E,Z)-5-((2-(1-Oxo-1,3-dihydroisobenzofuran-5-yl)thiazol-5-yl)methylene)-2-thioxoimidazolidin-4-one] | 95% | 53% | > 300 °C | 1720 nM |
| O=C1NC(=S)N/C1=C\c1cc(-c2ccc3c(c2)COC3=O)no1 [Cmpd 58, (E,Z)-5-((3-(1-Oxo-1,3-dihydroisobenzofuran-5-yl)isoxazol-5-yl)methylene)-2-thioxoimidazolidin-4-one] | 82% | 39% | > 300 °C |  |
| O=C1NC(=S)N/C1=C/c1cc(-c2ccc3c(c2)COC3=O)cs1 [Cmpd 15, (E,Z)-5-((4-(1-Oxo-1,3-dihydroisobenzofuran-5-yl)thiophen-2-yl)methylene)-2-thioxoimidazolidin-4-one] | 96% | 67% | > 300 °C |  |
| O=C1NCC/C1=C\c1ccc(-c2ccc3c(c2)COC3=O)s1 [Cmpd 37, (E,Z)-3-((5-(1-Oxo-1,3-dihydroisobenzofuran-5-yl)thiophen-2-yl)methylene)pyrrolidin-2-one] | 97% | 20% | 224 to 227 °C |  |
| O=C1NC(=S)N/C1=C/c1cc2ccc(-c3ccc4c(c3)COC4=O)cc2s1 [Cmpd 80, (E,Z)-5-((6-(1-Oxo-1,3-dihydroisobenzofuran-5-yl)benzo[b]thiophen-2-yl)methylene)-2-thioxoimidazolidin-4-one] | 75% | 55% | > 310 °C | 360 nM |
